According to patent US20130302470A1, “L-amino-acid-containing feed additive in the form of fermentation-broth-based granules, and processes for its preparation” (EVONIK INDUSTRIES AG, priority 2012, published 2013):

Assays:
rainbow trout = conditions: aquafeed with different lysine concentrations, FIG. 8; cited from earlier work
[1] = Hydrothermal stability, Experiment 9.1: extruded aquafeed (lysine recovery); assay type: physicochemical
Description: (§1) So as to be able to assess what is known as the hydrothermal stability of the additives, and to compare them with each other, the production processes for producing pelleted and extruded aquafeed was reproduced on a small scale. In each case two feed blends which differ only in respect of the L-lysine additive were employed, mixture A being supplemented with 0.50% granular feed additive according to the present invention and mixture B with 0.32% Lys×HCl, which corresponded in each case to identical lysine base concentrations. The granular feed additive according to the invention contained 50.7% by weight of lysine in the form of lysine sulphate and 10% by weight of biomass.
The process parameters, such as, for example, residence time, temperature or water content, were set at values which are typically used in practice. […] The hydrothermal stabilities of the test additives upon processing in the processes in question can be assessed relative to one another via the recovery rates. […]
The hydrothermal stability of the granules according to the present invention was compared with the hydrothermal stability of Lys×HCl. The hydrothermal stability of the additives for extruded shrimp/prawn feed was examined and assessed during the entire respective process. […]
In the amino acid determination, the supplemented amino acid lysine was determined. […]

[2] = Hydrothermal stability, Experiment 9.2: pelleted aquafeed (lysine recovery); assay type: physicochemical; conditions: pelleting process
Description: as §1
The process parameters, such as, for example, residence time, temperature or water content, were set at values which are typically used in practice. During the experiments, samples of the feed blend were taken after the respective individual process steps and subjected to extensive amino acid analysis. The hydrothermal stabilities of the test additives upon processing in the processes in question can be assessed relative to one another via the recovery rates.
The feed blends corresponded to representative state-of-the-art formulas. […]
In the amino acid determination, the supplemented amino acid lysine was determined. […] Thereafter, the amino acids were subjected to photometric quantitation at 570 nm. […]

## Cl.NCCCC[C@H](N)C(=O)O [lysine HCl, L-lysine monohydrochloride]
Rainbow trout
  Effect of the nature of the lysine source on the weight increase of trout: no effect on the weight increase
[1]; extrusion process
  Lysine lost during the processing to give shrimp/prawn feed: 8.6%
[1]; extrusion, lysine sulphate granules versus lysine HCl
  Stability of the lysine in the shrimp/prawn feed production process (comparison): markedly more unstable
[2]
  Lysine loss upon pelleting: approximately 3.3%
